Data reported in US10156566B2, “Detoxification of microbial virulence factors in oral cavity” (priority 2015, dated 2018).
Several values for one entry are separate records, joined by “and”; a condition that tells them apart may be missing. Equal entries are not always repeated.

Assays:
E. coli LPS [1] = test: Displacement of LPS from binding to BODIPY TR cadaverine (Tables 3, 9, 12, 13); conditions: E. coli LPS 15 μg/ml
P. gingivalis LPS 1690 = assay type: biochemical
Procedure: (§1) The Limulus Amebocyte Lysate Assay (LAL) is an assay to determine the total amount of lipopolysaccharide (LPS) in the sample tested (Pierce LAL Chromogenic Endotoxin Quantitation Kit, ThermoFischer Scientific, Waltham, Mass.). The assay was performed following manufacturer's instruction. Ninety-six-well microplates were first equilibrated in a heating block for 10 min at 37° C. Fifty μl each of standard or sample was dispensed into the microplate wells and incubated with the plate covered for 5 min at 37° C. Then 50 μl LAL was added to each well.
(§2) Plates were shaken gently and incubated for 10 min at 37° C. 100 μl of chromogenic substrate was added and incubated for 6 min at 37° C.
(§3) The Thermo Scientific Pierce LAL Chromogenic Endotoxin Quantitation Kit is a quantitative endpoint assay for the detection of LPS, which catalyzes the activation of a proenzyme in the modified Limulus Amebocyte Lysate (LAL). The activated proenzyme then splits p-Nitroaniline (pNA) from the colorless substrate, Ac-Ile-Glu-Ala-Arg-pNA. […] Then 50 μl LAL was added to each well. Plates were shaken gently and incubated for 10 min at 37° C. 100 μl of chromogenic substrate was added and incubated for 6 min at 37° C.

E. coli LPS [2] = assay type: biochemical
Procedure: as §1, §2, §3

CCCCC/C=C\C/C=C\CCCCCCCC(=O)OC [Methyl linoleate]
inhibition (Lipopolysaccharide): 36.9%
LPS displacement % Mean (E. coli LPS [1]): 88%
LPS displacement % Reading 1 (E. coli LPS [1]): ~100%
LPS displacement % Reading 2 (E. coli LPS [1]): 53%
LPS displacement % Reading 3 (E. coli LPS [1]): ~100%

CCCCCCCCCCCCCCCCCC(=O)NCCCN(C)C [Stearylamidopropyldimethylamine]
inhibition (Lipopolysaccharide): 83.8%
LPS displacement % Mean (E. coli LPS [1]): 77%
LPS displacement % Reading 1 (E. coli LPS [1]): 85%
LPS displacement % Reading 2 (E. coli LPS [1]): 71%
LPS displacement % Reading 3 (E. coli LPS [1]): 74%

O=C([O-])C(=O)[O-].[K+].[K+] [potassium oxalate]
Inhibition of LAL activity % (P. gingivalis LPS 1690): 8% and 0%
Inhibition of LAL activity % (E. coli LPS [2]): 1% and 6%

CCCCCCCCCCCCCCCCCC(=O)NCCN(CC)CC [Diethylaminoethyl stearamide]
inhibition (Lipopolysaccharide): 97.4%
LPS displacement % Mean (E. coli LPS [1]): 66%
LPS displacement % Reading 1 (E. coli LPS [1]): 77%
LPS displacement % Reading 2 (E. coli LPS [1]): 62%
LPS displacement % Reading 3 (E. coli LPS [1]): 58%

[F-].[Na+] [sodium fluoride]
Inhibition of LAL activity % (P. gingivalis LPS 1690): 0%
Inhibition of LAL activity % (E. coli LPS [2]): 4% and 5%

CCCCCCCCCCCC[n+]1ccccc1.[Cl-] [N-Laurylpyridinium chloride]
inhibition (Lipopolysaccharide): 96.5%
LPS displacement % Mean (E. coli LPS [1]): 60%
LPS displacement % Reading 1 (E. coli LPS [1]): 66%
LPS displacement % Reading 2 (E. coli LPS [1]): 56%
LPS displacement % Reading 3 (E. coli LPS [1]): 59%

CCCCCCCCCCCCCCCCCC(=O)OCCNC(=O)C[n+]1ccccc1.[Cl-] [Steapyrium chloride]
inhibition (Lipopolysaccharide): 100%
LPS displacement % Mean (E. coli LPS [1]): ~100%
LPS displacement % Reading 1 (E. coli LPS [1]): ~100%
LPS displacement % Reading 2 (E. coli LPS [1]): 100%
LPS displacement % Reading 3 (E. coli LPS [1]): ~100%

[O-]n1ccccc1=S.[O-]n1ccccc1=S.[Zn+2] [1-Hydroxypyridine-2-thone zinc salt]
Inhibition of LAL activity % (P. gingivalis LPS 1690): 0%
Inhibition of LAL activity % (E. coli LPS [2]): 2% and 6%

CCCCCCCCCCCCCC(=O)NCC(=O)O [N-Myristoylglycine]
inhibition (Lipopolysaccharide): 91.4%
LPS displacement % Mean (E. coli LPS [1]): 76%
LPS displacement % Reading 1 (E. coli LPS [1]): ~100%
LPS displacement % Reading 2 (E. coli LPS [1]): 39%
LPS displacement % Reading 3 (E. coli LPS [1]): 74%

CC(C=O)Cc1ccc(C(C)C)cc1 (stereo not drawn) [3-(4-Isopropylphenyl)-2-methylpropionaldehyde]
LPS displacement % Mean (E. coli LPS [1]): 39%
LPS displacement % Reading 1 (E. coli LPS [1]): 21%
LPS displacement % Reading 2 (E. coli LPS [1]): 29%
LPS displacement % Reading 3 (E. coli LPS [1]): 65%

CCCCCCCCCCCCN(C)C [N,N-Dimethyldodecylamine]
LPS displacement % Mean (E. coli LPS [1]): 22%
LPS displacement % Reading 1 (E. coli LPS [1]): 36%
LPS displacement % Reading 2 (E. coli LPS [1]): 18%
LPS displacement % Reading 3 (E. coli LPS [1]): 13%

CCCCCCCCCCCC(=O)NCCCN(C)C [3-Dodecanamidopropyldimethylamine]
LPS displacement % Mean (E. coli LPS [1]): 79%
LPS displacement % Reading 1 (E. coli LPS [1]): 87%
LPS displacement % Reading 2 (E. coli LPS [1]): 62%
LPS displacement % Reading 3 (E. coli LPS [1]): 87%

iron(iii) chloride hexahydrate
inhibition (Lipopolysaccharide): 58.1%
LPS displacement % Mean (E. coli LPS [1]): ~100%
LPS displacement % Reading 1 (E. coli LPS [1]): ~100%
LPS displacement % Reading 2 (E. coli LPS [1]): 100%
LPS displacement % Reading 3 (E. coli LPS [1]): ~100%

CCCCCCCCCCCCCC[n+]1ccc(C)cc1.[Cl-] [Myristyl-γ-picolinium chloride]
inhibition (Lipopolysaccharide): 96.2% and 96%
LPS displacement % Mean (E. coli LPS [1]): ~100%
LPS displacement % Reading 1 (E. coli LPS [1]): ~100%
LPS displacement % Reading 2 (E. coli LPS [1]): ~100%
LPS displacement % Reading 3 (E. coli LPS [1]): ~100%

CCCCCC(C=O)=Cc1ccccc1 [alpha-Amylcinnamaldehyde]
LPS displacement % Mean (E. coli LPS [1]): 15%
LPS displacement % Reading 1 (E. coli LPS [1]): 17%
LPS displacement % Reading 3 (E. coli LPS [1]): 13%

CCCCCCCC/C=C\CCCCCCCC(=O)O [cis-Oleic acid]
inhibition (Lipopolysaccharide): 61%
LPS displacement % Mean (E. coli LPS [1]): 31%
LPS displacement % Reading 1 (E. coli LPS [1]): 54%
LPS displacement % Reading 3 (E. coli LPS [1]): 9%

CC(O)C(=O)[O-].CC(O)C(=O)[O-].[Zn+2] (racemic) [dl-lactic acid hemizinc salt]
LPS displacement % Mean (E. coli LPS [1]): 19%
LPS displacement % Reading 1 (E. coli LPS [1]): 15%
LPS displacement % Reading 3 (E. coli LPS [1]): 24%

[Cl][Sn][Cl] [stannous chloride]
Inhibition of LAL activity % (E. coli LPS [2]): 89% and 65%
